From patent publication US12409167B2, “Pharmaceutical combination comprising a selective S1P1 receptor agonist” (Vanda Pharmaceuticals Inc., priority 2014, dated 2025)
Counter-ions that a name gives are not always drawn.

Columns and labels:
[1] = system: experimental autoimmune encephalomyelitis (EAE); assay: rat monophasic EAE model, DMF pilot experiment; type: in vivo, Female Lewis rats; settings: first pilot experiment, dose 120 mg/kg q.d. from day 0
Procedure: The efficacy of dimethyl fumarate (DMF) in acute monophasic models of experimental autoimmune encephalomyelitis (EAE) can be determined in a pilot experiment.
Female Lewis rats are immunized with an emulsion of myelin basic protein (MBP) from Guinea pig in complete Freund's adjuvant. A total of 200 micrograms of MBP is injected per rat at two sites subcutaneously (right paw and base of tail). Within 10 days the rats develop signs of paralysis which will be graded on a scale from 0 to 15 assessing the tail and each limb individually according to the method originally described by Weaver A. et al., FASEB J., 2005, 19(12): 1668-1670. The disease takes an acute monophasic course and is self-remitting. Usually by day 21 clinical scores reach values below 3.0.
Groups of 10 to 14 rats are dosed starting at the day of disease induction (day 0) with different doses of DMF in the range between 40 and 160 mg/kg once daily (q.d.). Clinical scores are assessed on a daily basis and disease development is compared between vehicle-treated rats and rats receiving DMF (vehicle: 0.5% Methylcellulose/0.5% Tween® 80). In parallel, body weights of the rats are monitored on a daily basis to follow general health. The experiment is terminated at day 21 whereupon hematology can be measured.
Plasma samples can be taken for compound concentration determination and for the measurement of protein markers. […]

[2] = system: experimental autoimmune encephalomyelitis (EAE); assay: combination efficacy experiment in rat EAE model; type: in vivo, Female Lewis rats; settings: FIG. 1, DMF 120 mg/kg q.d., ponesimod 100 mg/kg q.d., from day 0; for effect on clinical course of EAE (clinical score): n=11/group
Procedure: FIG. 1: Efficacy of ponesimod, DMF or its combination in rat EAE (n=11/group). Clinical scoring was performed daily by an independent examiner in a blinded manner. SEM=standard error of the mean. Female Lewis rats are immunized with an emulsion of myelin basic protein (MBP) from Guinea pig in complete Freund's adjuvant. A total of 200 micrograms of MBP is injected per rat at two sites subcutaneously (right paw and base of tail). Within 10 days the rats develop signs of paralysis which will be graded on a scale from 0 to 15 assessing the tail and each limb individually according to the method originally described by Weaver A. et al., FASEB J., 2005, 19(12): 1668-1670. The disease takes an acute monophasic course and is self-remitting. Usually by day 21 clinical scores reach values below 3.0. Groups of 10 to 14 rats are dosed starting at the day of disease induction (day 0) with different doses of DMF in the range between 40 and 160 mg/kg once daily (q.d.). Clinical scores are assessed on a daily basis and disease development is compared between vehicle-treated rats and rats receiving DMF (vehicle: 0.5% Methylcellulose/0.5% Tween® 80). In parallel, body weights of the rats are monitored on a daily basis to follow general health. The experiment is terminated at day 21 whereupon hematology can be measured. The combination efficacy experiment is performed in the same rat EAE model as described for the first pilot experiment. It consists of four treatment groups: • 1. Vehicle (0.5% Methylcellulose/0.5% Tween® 80) q.d., from day 0 • 2. DMF (120 mg/kg) q.d., from day 0 • 3. Ponesimod (100 mg/kg) q.d., from day 0 • 4. DMF (120 mg/kg) q.d., from day 0+ponesimod (100 mg/kg) q.d., from day 0 In life and termination endpoints are the same as described for the first pilot experiment.

[3] = system: lymphocyte count in peripheral blood; assay: ponesimod pilot experiment, lymphocyte count in peripheral blood; type: in vivo; settings: second pilot experiment, healthy female Lewis rats, dose 100 mg/kg
Procedure: In parallel to the measurement of efficacy of DMF in the EAE model, a second pilot experiment is required. Healthy female Lewis rats will receive ponesimod at different doses in the range from 0.3 to 100 mg/kg. The goal is to assess the dose-effect relationship of ponesimod on lymphocyte count in peripheral blood in this strain of rat.

[4] = system: peripheral blood lymphocytes; settings: oral administration; cited from earlier work
[5] = system: moderate to severe chronic plaque psoriasis; relapsing-remitting multiple sclerosis; settings: patients with moderate to severe chronic plaque psoriasis and with relapsing-remitting multiple sclerosis; cited from earlier work

COC(=O)/C=C/C(=O)OC [DMF, dimethyl fumarate]
efficacy on EAE scores [1]: partial efficacy between none and strongest efficacy | effect on clinical score from day 16 onwards ([2]; from day 16 onwards): no effect on clinical score anymore | effect on clinical course of EAE (clinical score) [2]: moderate effect during the ascending phase of the disease

CCC/N=C1\S/C(=C\c2ccc(OC[C@H](O)CO)c(Cl)c2)C(=O)N1c1ccccc1C [ponesimod, (R)-5-[3-chloro-4-(2,3-dihydroxy-propoxy)-benz[Z]ylidene]-2-([Z]-propylimino)-3-o-tolyl-thiazolidin-4-one]
efficacy on lymphocyte count reduction [3]: full efficacy on lymphocyte count reduction | effect on clinical course of EAE (clinical score) [2]: marked and statistically significant effect | number of peripheral blood lymphocytes [4]: consistent, sustained, and dose-dependent reduction | clinical benefit in phase II trials [5]: has shown clinical benefit
